Earlier results, collected in patent publication EP2708126A1, “Insecticidal aerosol” (priority 2012, dated 2014).

Settings: rats, through ingestion

Row | SMILES | LD50
1 | CC1(C)C(C=C(Cl)Cl)C1C(=O)OCc1cccc(Oc2ccccc2)c1 (stereo not drawn) [Permethrin, 3-phenoxybenzyl-3-(2,2-dichlorovinyl)-2,2-dimethylcyclopropane-carboxylate] | 383 mg/kg
2 | CC1(C)C(C=C(Cl)Cl)C1C(=O)OC(C#N)c1cccc(Oc2ccccc2)c1 (racemic) [Alpha cypermethrin] | 79 mg/kg
3 | CNC(=O)Oc1cccc2c1OC(C)(C)O2 [Bendiocarb, 2,2-dimethyl-1,3-benzodioxol-4-yl-N-methylcarbamate] | 55 mg/kg
